Data from ChEMBL document CHEMBL4373660, “The synthesis and biological evaluation of novel gardenamide A derivatives as multifunctional neuroprotective agents” (Medchemcomm, 2019).

Key:
Cortical neurone [1] = assay: (§1) Neuroprotective activity against OGD-induced neurotoxicity in Sprague-Dawley rat cortical neuron assessed as cell survival rate at 0.1 uM pretreated for 24 hrs followed by incubation in oxygen and glucose deprivation medium for 2 hrs followed by exposure to reoxygenation by re-incubating in normoxia condition for 24 hrs by MTT assay (reference value: 58.5 to 61.2 %); format: functional
Cortical neurone [2] = assay: as §1, with “1” for “0.1”; format: functional
Cortical neurone [3] = assay: as §1, with “10” for “0.1”; format: functional
Hippocampal neurone [4] = assay: Neuroprotective activity against H2O2-induced neurotoxicity in Sprague-Dawley rat hippocampal neuron assessed as increase in cell survival rate incubated for 24 hrs in presence of 150 uM H2O2 by MTT assay; format: functional, cell-based
Hippocampal neurone [5] = assay: Neuroprotective activity against amyloid beta (1 to 42)-induced neurotoxicity in Sprague-Dawley rat hippocampal neuron assessed as increase in cell survival rate incubated for 48 hrs in presence of amyloid beta (1 to 42) by CellTiter Glo-based luminescence assay; format: functional
[6] = Cytotoxicity against Sprague-Dawley rat cortical neuron assessed as cell survival at 11.1 uM incubated for 48 hrs by CellTiter Glo-based luminescence assay relative to control; parameters: species or system Cortical neurone; conditions: rat cortical neurons, read-out: Activity
[7] = Cytotoxicity against Sprague-Dawley rat cortical neuron assessed as cell survival at 100 uM incubated for 48 hrs by CellTiter Glo-based luminescence assay relative to control; parameters: species or system Cortical neurone; conditions: rat cortical neurons, read-out: Activity
[8] = Cytotoxicity against Sprague-Dawley rat cortical neuron assessed as cell survival at 33.3 uM incubated for 48 hrs by CellTiter Glo-based luminescence assay relative to control; parameters: species or system Cortical neurone; conditions: rat cortical neurons, read-out: Activity
[9] = Cytotoxicity against Sprague-Dawley rat cortical neuron assessed as cell survival at 3.7 uM incubated for 48 hrs by CellTiter Glo-based luminescence assay relative to control; parameters: species or system Cortical neurone; conditions: rat cortical neurons, read-out: Activity
[10] = Neuroprotective activity against H2O2-induced neurotoxicity in Sprague-Dawley rat hippocampal neuron assessed as cell survival rate at 1 uM incubated for 24 hrs in presence of 150 uM H2O2 by MTT assay (reference value: 41.6 to 43.2 %); format: functional, Hippocampal neurone
[11] = Neuroprotective activity against H2O2-induced neurotoxicity in Sprague-Dawley rat hippocampal neuron assessed as cell survival rate at 10 uM incubated for 24 hrs in presence of 150 uM H2O2 by MTT assay (reference value: 41.6 to 43.2 %); format: functional, Hippocampal neurone
[12] = Neuroprotective activity against H2O2-induced neurotoxicity in Sprague-Dawley rat hippocampal neuron assessed as cell survival rate at 0.1 uM incubated for 24 hrs in presence of 150 uM H2O2 by MTT assay (reference value: 41.6 to 43.2 %); format: functional, Hippocampal neurone

Row | Compound | Activity (Cortical neurone [1]) | Activity (Cortical neurone [2]) | Activity (Cortical neurone [3]) | Activity (Hippocampal neurone [4]) | Activity (Hippocampal neurone [5]) | viability at 48 h, 11.1 µM [6] | viability at 48 h, 100 µM [7] | viability at 48 h, 33.3 µM [8] | viability at 48 h, 3.7 µM [9] | Activity [10] | Activity [11] | Activity [12]
1 | COC(=O)C1=CN(C(C)C)C(=O)[C@@H]2C(CN3CCN(Cc4cccc(OC)c4)CC3)=CC[C@H]12.Cl.Cl | 60.6% | 62.1% | 64% |  |  |  |  |  |  |  |  | 
2 | COC(=O)C1=CN(C)C(=O)[C@@H]2C(CN3CCN(Cc4ccc(C)cc4)CC3)=CC[C@H]12.Cl.Cl | 59% | 66.9% | 72.6% |  |  |  |  |  |  |  |  | 
3 | COC(=O)C1=CN(C(C)C)C(=O)[C@@H]2C(CN3CCN(Cc4ccccc4)CC3)=CC[C@H]12.Cl.Cl | 64.4% | 71.8% | 84.5% | Dose-dependent effect | Dose-dependent effect | 96.3% | 82.5% | 91.7% | 90.7% | 71% | 76.2% | 60.3%
4 | COC(=O)C1=CN(C(C)C)C(=O)[C@@H]2C(CN3CCN(Cc4cccc(C(F)(F)F)c4)CC3)=CC[C@H]12.Cl.Cl | 58.7% | 71.6% | 85.5% |  |  |  |  |  |  |  |  | 
5 | CC(=O)N[C@@H](CS)C(=O)O [ACETYLCYSTEINE] |  |  |  |  |  |  |  |  |  | 69.5% | 79.1% | 62.6%
6 | COC(=O)C1=CN(C(C)C)C(=O)[C@@H]2C(CN3CCN(Cc4cccc(C)c4)CC3)=CC[C@H]12.Cl.Cl | 59% | 71.3% | 84.8% |  |  |  |  |  |  |  |  | 
7 | COC(=O)C1=CN(C(C)C)C(=O)[C@@H]2C(CN3CCN(Cc4ccc([N+](=O)[O-])cc4)CC3)=CC[C@H]12.Cl.Cl | 67.1% | 74.3% | 87.6% | Dose-dependent effect | Dose-dependent effect | 99.7% | 78.5% | 88.7% | 97.2% | 73.8% | 82.1% | 57.6%
8 | COC(=O)C1=CN(C)C(=O)[C@@H]2C(CN3CCN(Cc4ccc(F)cc4)CC3)=CC[C@H]12.Cl.Cl | 63.8% | 71.3% | 85.7% | Dose-dependent effect | Dose-dependent effect | 96.2% | 78.5% | 85.1% | 98.4% | 70.3% | 78.5% | 62.5%
9 | COC(=O)C1=CN(C(C)C)C(=O)[C@@H]2C(CN3CCN(Cc4ccc(Cl)cc4)CC3)=CC[C@H]12.Cl.Cl | 58.7% | 64.3% | 71.9% |  |  |  |  |  |  |  |  | 
10 | COC(=O)C1=CN(C)C(=O)[C@@H]2C(CN3CCN(Cc4ccc([N+](=O)[O-])cc4)CC3)=CC[C@H]12.Cl.Cl | 60% | 66.7% | 74.3% |  |  |  |  |  |  |  |  | 
11 | COC(=O)C1=CN(C(C)C)C(=O)[C@@H]2C(CN3CCN(Cc4ccc(C(F)(F)F)cc4)CC3)=CC[C@H]12.Cl.Cl | 59.1% | 71.6% | 85.7% |  |  |  |  |  |  |  |  | 
12 | COC(=O)C1=CNC(=O)[C@@H]2C(CO)=CC[C@H]12 | 59% | 69.4% | 79.3% |  |  |  |  |  |  | 65.8% | 70.9% | 59%
13 | COC(=O)C1=CN(C)C(=O)[C@@H]2C(CN3CCN(Cc4ccccc4)CC3)=CC[C@H]12.Cl.Cl | 58.6% | 63.7% | 72.3% |  |  |  |  |  |  |  |  | 
14 | COC(=O)C1=CN(C)C(=O)[C@@H]2C(CN3CCN(Cc4cccc(C(F)(F)F)c4)CC3)=CC[C@H]12.Cl.Cl | 63.3% | 72.5% | 80.3% |  |  |  |  |  |  |  |  | 
15 | COC(=O)C1=CN(C)C(=O)[C@@H]2C(CN3CCN(Cc4cccc(OC)c4)CC3)=CC[C@H]12.Cl.Cl | 59.5% | 63.8% | 72.5% |  |  |  |  |  |  |  |  | 
16 | COc1cc2c(cc1OC)C(=O)C(CC1CCN(Cc3ccccc3)CC1)C2 (configuration not stated) [DONEPEZIL] | 65.5% | 72.3% | 85.9% |  |  |  |  |  |  |  |  | 
17 | COC(=O)C1=CN(C)C(=O)[C@@H]2C(CN3CCN(Cc4ccc(C(F)(F)F)cc4)CC3)=CC[C@H]12.Cl.Cl | 63% | 72.2% | 80.9% |  |  |  |  |  |  |  |  | 
18 | COC(=O)C1=CN(C)C(=O)[C@@H]2C(CN3CCN(Cc4ccc(Cl)cc4)CC3)=CC[C@H]12.Cl.Cl | 62.7% | 71% | 80.1% |  |  |  |  |  |  |  |  | 
19 | COC(=O)C1=CN(C)C(=O)[C@@H]2C(CN3CCN(Cc4cccc(C)c4)CC3)=CC[C@H]12.Cl.Cl | 60.8% | 66.7% | 71.9% |  |  |  |  |  |  |  |  | 
20 | COC(=O)C1=CN(C(C)C)C(=O)[C@@H]2C(CN3CCN(Cc4ccc(F)cc4)CC3)=CC[C@H]12.Cl.Cl | 65.4% | 74.4% | 86.5% | Dose-dependent effect | Dose-dependent effect | 98.4% | 80.9% | 88.4% | 94.2% | 67.3% | 72.4% | 60.4%
21 | COC(=O)C1=CN(C(C)C)C(=O)[C@@H]2C(CN3CCN(Cc4ccc(C)cc4)CC3)=CC[C@H]12.Cl.Cl | 59% | 73.1% | 85.7% |  |  |  |  |  |  |  |  | 
